Laboratory results from ChEMBL document CHEMBL1141031, “Stereo-controlled synthesis of novel photoreactive gamma-secretase inhibitors” (Bioorg Med Chem Lett, 2009).
Calls of active or inactive are those of the source. The rule behind the calls is not given here.

How the values were obtained:
Gamma-secretase = assay: Inhibition of human gamma secretase assessed as effect on C100Flag substrate cleavage; type: protein-complex assay
[1] = target: Presenilin-1 (Homo sapiens) (UniProt P49768); assay: Binding affinity to presenilin-1 in UV irradiated human HeLa cells assessed as enzyme photolabeling at 10 uM by SDS-PAGE based photocross linking study; type: cell-based
[2] = target: Presenilin-1 (Homo sapiens) (UniProt P49768); assay: Binding affinity to presenilin-1 in UV irradiated human HeLa cells assessed as enzyme photolabeling at 10 uM in presence of 2 uM L-685,458 by SDS-PAGE based photocross linking study; type: cell-based

Row | IC50 (Gamma-secretase) [nM] | Activity [1] | Activity [2] | Compound
1 | 0.6 | Active | inactive | CC(C)C[C@H](NC(=O)[C@H](Cc1ccccc1)C[C@@H](O)[C@H](Cc1ccc(C(=O)c2ccccc2)cc1)NC(=O)OC(C)(C)C)C(=O)N[C@@H](Cc1ccccc1)C(=O)NCCCCCNC(=O)CCCCC1SC[C@H]2NC(=O)N[C@@H]12 (some centres undefined)
2 | 0.7 |  |  | COC(=O)[C@H](Cc1ccccc1)NC(=O)[C@H](CC(C)C)NC(=O)[C@H](Cc1ccccc1)C[C@@H](O)[C@H](Cc1ccc(C(=O)c2ccccc2)cc1)NC(=O)OC(C)(C)C
